For the assay, the target named is T1, PI3Kalpha (Homo sapiens, UniProt P42336).
T1 construct: His (N); host or cells: SF9 insect cells (baculovirus)
T1 sequence (P42336 whole entry): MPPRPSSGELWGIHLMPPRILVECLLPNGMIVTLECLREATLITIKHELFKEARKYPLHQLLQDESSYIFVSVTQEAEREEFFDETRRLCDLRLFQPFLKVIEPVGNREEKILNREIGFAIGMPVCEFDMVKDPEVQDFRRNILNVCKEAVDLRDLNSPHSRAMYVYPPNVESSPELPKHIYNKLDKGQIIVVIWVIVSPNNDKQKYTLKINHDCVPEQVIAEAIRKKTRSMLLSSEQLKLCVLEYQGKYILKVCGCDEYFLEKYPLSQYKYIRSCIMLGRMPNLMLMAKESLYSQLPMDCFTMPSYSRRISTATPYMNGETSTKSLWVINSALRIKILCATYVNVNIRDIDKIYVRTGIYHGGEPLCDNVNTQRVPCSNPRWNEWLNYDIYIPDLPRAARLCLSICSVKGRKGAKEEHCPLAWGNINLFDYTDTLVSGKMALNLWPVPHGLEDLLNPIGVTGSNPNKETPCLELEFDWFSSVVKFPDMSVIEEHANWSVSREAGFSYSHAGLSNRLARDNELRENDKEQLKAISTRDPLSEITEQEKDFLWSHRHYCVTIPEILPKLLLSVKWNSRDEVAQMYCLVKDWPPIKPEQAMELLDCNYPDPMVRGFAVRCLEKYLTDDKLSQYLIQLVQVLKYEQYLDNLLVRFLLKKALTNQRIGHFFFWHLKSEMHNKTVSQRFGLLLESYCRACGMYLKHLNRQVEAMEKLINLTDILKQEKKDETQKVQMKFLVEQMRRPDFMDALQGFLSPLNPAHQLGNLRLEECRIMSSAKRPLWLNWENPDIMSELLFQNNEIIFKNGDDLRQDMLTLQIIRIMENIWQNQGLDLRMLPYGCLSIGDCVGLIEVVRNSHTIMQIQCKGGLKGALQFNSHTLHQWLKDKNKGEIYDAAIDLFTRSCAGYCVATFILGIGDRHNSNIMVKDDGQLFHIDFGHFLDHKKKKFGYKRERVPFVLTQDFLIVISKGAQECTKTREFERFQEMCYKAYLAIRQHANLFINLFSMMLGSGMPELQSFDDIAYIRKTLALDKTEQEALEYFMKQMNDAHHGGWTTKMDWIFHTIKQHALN
T1 sequence (P27986 whole entry partner): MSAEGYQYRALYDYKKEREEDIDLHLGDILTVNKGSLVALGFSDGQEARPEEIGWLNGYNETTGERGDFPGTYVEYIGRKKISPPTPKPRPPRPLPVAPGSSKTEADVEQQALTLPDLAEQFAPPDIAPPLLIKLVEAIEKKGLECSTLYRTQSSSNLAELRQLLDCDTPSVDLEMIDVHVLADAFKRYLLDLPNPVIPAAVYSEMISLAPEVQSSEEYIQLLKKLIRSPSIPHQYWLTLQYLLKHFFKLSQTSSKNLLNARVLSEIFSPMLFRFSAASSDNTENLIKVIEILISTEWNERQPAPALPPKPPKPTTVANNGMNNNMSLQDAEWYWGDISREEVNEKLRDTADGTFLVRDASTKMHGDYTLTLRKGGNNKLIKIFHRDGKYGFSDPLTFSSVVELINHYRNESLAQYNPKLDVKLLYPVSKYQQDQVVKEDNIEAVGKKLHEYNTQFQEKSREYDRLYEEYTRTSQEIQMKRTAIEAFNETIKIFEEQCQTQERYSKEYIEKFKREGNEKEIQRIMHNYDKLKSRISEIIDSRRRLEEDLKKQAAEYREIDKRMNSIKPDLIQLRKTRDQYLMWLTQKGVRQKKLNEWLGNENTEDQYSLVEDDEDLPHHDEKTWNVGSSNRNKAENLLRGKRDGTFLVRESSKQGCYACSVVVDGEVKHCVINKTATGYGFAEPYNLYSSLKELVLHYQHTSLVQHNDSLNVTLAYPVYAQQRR
Briefly: Human PI3Kα enzyme assay (HTRF). Format: biochemical. The conditions noted are these: ATP 25 uM, di-C8 PI(4,5)P2, 30 minutes at room temperature, values given only as potency bins. An excerpt: The catalytic subunits of PI3Ks are cloned into either pDEST8 (p110 alpha) or pDEST10 (p110beta, p110delta, and p110gamma) as N-terminal His tagged fusion proteins using the Gateway system (Invitrogen, catalog#11804-010 for pDEST8 and 11806-015 for pDEST10). The sequences are verified before recombinant protein expression using the Baculovirus Expression System with Gateway® Technology. The accession numbers for the subunits are as follows:
The regulatory subunits of PI3Ks are cloned into pDEST8 as un-tagged protein using the Gateway system (Catalog#11804-010). The sequences are verified before recombinant protein expression using the Baculovirus Expression System with Gateway® Technology. The accession numbers for the subunits are as following: p85 alpha (GB: BC030815) p101 (GB: AB028925)
For expression of the p110 complexes, the p85 (MOI of 4) is co-infected with p110 alpha, beta, and delta respectively (1 MOI) in SF9 cells and harvested at 60 hours post co-infection. P110 gamma was infected at 1 MOI and harvested at 60 hours post infection.
For purification, PI3Ks are purified by Ni-NTA Agarose (Qiagen #30250) followed by Mono Q 10/100 GL (Ge Healthcare #17-5167-01). VPS34 is purified by Glutathione Sepharose 4 Fast Flow (GE Healthcare #17-5132-03) followed by HiTrap Q (GE Healthcare #17-1153-01).
1) Human PI3Kα Enzyme Assay Method
0.5 uL compounds in DMSO are added to wells of a 384 well microtitre plate (Corning 3575). At room temperature: 10 ul PI3K reaction buffer (50 mM Hepes, 5 mM DTT, 150 mM NaCl, 10 mM beta-glycerophosphate, 10 mM MgCl2, 0.25 mM sodium cholate and 0.001% CHAPS, pH 7.00) containing ATP (25 uM, Promega) is added followed immediately by 10 ul PI3K reaction buffer containing di-C8 PI(4,5)P2 (3.5 uM, CellSignals) and PI3Kalpha (0.4875 nM, Millennium Protein Sciences Group) and the mixture is incubated with shaking at room temperature for 30 minutes. Then 5 ul PI3K stop mix (50 mM Hepes, 5 mM DTT, 150 mM NaCl, 0.01% Tween-20, 15 mM EDTA and 25 nM biotin-PI(3,4,5)P3 (Echelon) is added to quench the reaction followed immediately by addition of 5 ul HTRF detection mix (50 mM Hepes, 5 mM DTT, 150 mM NaCl, 0.01% Tween-20, 40 mM KF, 10 nM GST:GRP-1 PH domain (Millennium Protein Sciences Group), 15 nM Streptavidin-XL (CisBio) and 0.375 nM anti-GST Eu++ antibody (CisBio) at pH 7.00). The plates are then incubated for 1 hour at room temperature with shaking and then read on a BMG PheraStar Plus reader.
(In general: In TR-FRET formats the signal depends on donor and acceptor labels being close together.)
Usually IC50 stands for the concentration needed to halve the response being measured. Lower therefore signals higher potency. In the case of `CNc1nccc(-c2sc(-c3ncc[nH]3)c(-c3ccc(Cl)cc3Cl)c2C#N)n1` [Compound 16], the IC50 was less than 100 nM.

`CNc1cc(-c2cc(-c3ccc(Cl)cc3Cl)c(-c3ncc[nH]3)s2)ncn1` [Compound 84]: the 50% inhibitory concentration (IC50) is more than 1000 nM.

In turn, `COc1cc(-c2sc(-c3nnc[nH]3)c(-c3ccc(Cl)cc3Cl)c2C#N)ccn1` [Compound 24] returned an IC50 of more than 1000 nM.

`CS(=O)(=O)Nc1cc(-c2sc(-c3nnc[nH]3)c(-c3ccc(Cl)cc3Cl)c2C#N)ccn1` [Compound 4]: the IC50 is more than 1000 nM.

Molecule `N#Cc1c(-c2ccnc(N)c2)sc(C(N)=O)c1-c1ccc(Cl)cc1Cl` [Compound 60] displayed an IC50 of 100 to 1000 nM.

With `N#Cc1c(-c2ccnc(NC(=O)c3ccccc3)c2)sc(-c2nnc[nH]2)c1-c1ccc(Cl)cc1Cl` [Compound 1], the IC50 is more than 1000 nM.

Molecule `N#Cc1c(-c2ccnc(N)c2)sc(-c2cnc[nH]2)c1-c1ccc(Cl)cc1Cl` [Compound 80, 2-(2-aminopyridin-4-yl)-4-(2,4-dichlorophenyl)-5-(1H-imidazol-5-yl)thiophene-3-carbonitrile] yielded an IC50 of less than 100 nM.

Molecule `CNC(=O)c1cc(-c2sc(-c3nnc[nH]3)c(-c3ccc(Cl)cc3Cl)c2C#N)ccn1` [Compound 44] displayed an IC50 of more than 1000 nM.

The molecule `COc1ccc(CNc2cc(-c3sc(-c4nnc[nH]4)c(-c4ccc(Cl)cc4Cl)c3C#N)ccn2)c(OC)c1` [Compound 33] came in with a half-maximal inhibitory concentration (IC50) of more than 1000 nM.

`Cc1cnc(N)nc1-c1sc(-c2nnc[nH]2)c(-c2ccc(Cl)cc2Cl)c1C#N` [Compound 8] showed an IC50 of more than 1000 nM.
